We go through 20 molecules from patent EP3789378A1, “PIPERIDINES OR PIPERIDONES SUBSTITUTED WITH UREA AND HETEROARYL” (Grünenthal GmbH, priority 2019, dated 2021).

Each structure is given as a SMILES string. Where a name gives a salt, the structure may show the parent alone.

The assay concerns the target T1, h FPR2 (Homo sapiens, UniProt P25090).
T1 construct: expressed in transfected cells
T1 sequence (P25090 1-351): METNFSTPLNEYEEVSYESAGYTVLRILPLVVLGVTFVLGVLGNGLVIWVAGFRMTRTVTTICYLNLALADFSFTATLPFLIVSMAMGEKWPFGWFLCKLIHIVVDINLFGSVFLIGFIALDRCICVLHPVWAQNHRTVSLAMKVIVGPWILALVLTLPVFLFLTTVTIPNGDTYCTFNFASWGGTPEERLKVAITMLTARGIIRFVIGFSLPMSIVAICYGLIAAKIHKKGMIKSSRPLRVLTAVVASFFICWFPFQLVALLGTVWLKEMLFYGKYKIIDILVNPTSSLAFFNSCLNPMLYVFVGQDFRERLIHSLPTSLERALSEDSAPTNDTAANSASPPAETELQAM
Kind of assay: Agonistic activity in hFPR2-Aq-CHO cells (FLIPR Calcium 5 fluorescence assay). The assay is classed as cell-based. The conditions noted are these: 11 point half log dilution, final assay concentration from 10µM. As for the experimental part:
After washing, the cells are plated at 10,000 cells per well in 40 µL complete medium in a 384-well sterile clear bottom black plate and incubated in a 5% CO2 incubator at 37°C for 18 hours. Plating media is removed from each well by decanting and gentle tapping before 30 µL of 0.5X Calcium 5 dye solution (0.5X FLIPR Calcium 5 dye (Molecular devices, R8186)); HBSS; 20mM HEPES; 2.5mM Probenecid; 0.025% Pluronic F-127; pH adjusted to 7.4) is added to each well and the plate is then incubated at 37°C for 30 minutes. For the assay the plate is equilibrated at room temperature for 10 minutes before placing it in the FLIPR. Compounds are dissolved in DMSO and serially diluted over an 11 point half log (3.16 fold) dilution (2 mM to 20 nM). Compounds are then diluted 1:50 in assay buffer (HBSS; 20mM HEPES; 2.5mM Probenecid; 0.05% gelatin; 0.1% BSA; pH adjusted to 7.4) just before performing the assay. Compounds are finally added to the respective wells of the cell plate (final assay concentration 10 µM to 100 pM) using the FLIPR (e.g. FLIPR-Tetra, Molecular Devices) and fluorescence readings are captured for 5 minutes. The increase in fluorescence from the basal reading in the presence of the compounds is compared with that of the control wells (wells having no compound) to calculate the activity of the compounds. The EC50 values of the compounds can be determined using e.g. Graph pad Prism software.
Assay method for measuring agonistic activity of compounds in hFPR2-Aq-CHO cell
Cryo-vial containing 6x10^6 cells (hFPR1-Gα15-CHO or hFPR2-Aq-CHO) was thawed in a 37°C water bath. Cells were suspended in 10ml of respective complete growth media (F12(1X)HAM media (Gibco; Cat#11765); 10% HI-FBS (Gibco; Cat#10082); 0.4 mg/ml Geneticin (Gibco; Cat#10131); 0.25 mg/ml Zeocin (Invitrogen; Cat#R25001)) in a 15ml centrifuge tube. The cell viability was checked with the help of Trypan Blue dye. Upon washing the cells, those were plated in a 384-well sterile clear bottom black plate (Greiner Bioone Cat# 781091) so that, each well contained 10,000 cells in 40µl complete growth media. The plate was incubated in a 5% CO2 incubator at 37°C for 18 hours. Before assay on the next day, the cell plating media was removed from each well of the plate by decanting and gentle tapping. 30µl of 0.5X Calcium 5 dye solution (0.5X FLIPR Calcium 5 dye (Molecular devices Cat# R8186); HBSS (Invitrogen; Cat#14025); 20mM HEPES (Sigma; Cat#H0887); 2.5mM Probenecid (Sigma; Cat#P8761); 0.025% Pluronic F-127 (Sigma; Cat#P2443); pH adjusted to 7.4) was added to each well. The plate was then incubated at 37°C for 30 minutes. Following which the plate was equilibrated at room temperature for 10 minutes before placing it in a 384 well FLIPR for assay. Compounds were dissolved in DMSO and serially diluted following 11 point half log (3.16 fold) dilution with a starting concentration of 2mM (Final assay concentration 10µM). Aliquots of above mentioned each dilution was mixed with assay buffer (HBSS (Invitrogen; Cat#14025); 20mM HEPES (Sigma; Cat#H0887); 2.5mM Probenecid (Sigma; Cat#P8761); 0.05% gelatin (Sigma; Cat#G1890); 0.1% BSA (Sigma; Cat#A3059); pH adjusted to 7.4) just before performing the assay. Compounds were added to the respective wells of the assay ready cell plate with the help of the FLIPR (FLIPR Tetra) and fluorescence readings were captured for 5 minutes to measure any agonistic response of the compounds. The increase in fluorescence readings from the basal reading in presence of the compounds were compared with that of the control wells (wells having no compound) to calculate the agonistic activity of the compounds. The EC50 values of the compounds were determined using the Graph pad Prism software.
For `COc1ccc([C@@H]2CN(C(=O)CCO)CC[C@H]2NC(=O)Nc2ccc(Cl)cc2)nc1` (relative stereo) [Ex-102, trans-1-(4-chloro-phenyl)-3-[1'-(3-hydroxy-propionyl)-5-methoxy-1',2',3',4',5',6'-hexahydro-[2,3']bipyridinyl-4'-yl]-urea], the EC50 (in general, the concentration needed to bring the measured effect to its halfway point) was determined as 27 nM.

As for `Cc1cc(NC(=O)N[C@@H]2CCN(c3cc(C(F)(F)F)ncn3)C[C@H]2c2ccc(Cl)cn2)sn1` (relative stereo) [Ex-27, trans-1-[5-chloro-1'-(6-trifluoromethyl-pyrimidin-4-yl)-1',2',3',4',5',6'-hexahydro-[2,3']bipyridinyl-4'-yl]-3-(3-methyl-isothiazol-5-yl)-urea], the EC50 is 6 nM. With `COc1ccc([C@@H]2CN(C3COC3)CC[C@H]2NC(=O)Nc2cc(C)ns2)nc1` (relative stereo) [Ex-133, trans-1-[3-(5-Methoxy-pyridin-2-yl)-1-(oxetan-3-yl)-piperidin-4-yl]-3-(3-methyl-isothiazol-5-yl)-urea] the figure was 13 nM. With `COc1ccc([C@@H]2CN(CCS(C)(=O)=O)CC[C@H]2NC(=O)Nc2cc(C)ns2)nc1` (relative stereo) [Ex-148, trans-1-[3-(5-Methoxy-pyridin-2-yl)-1-(2-methylsulfonyl-ethyl)-piperidin-4-yl]-3-(3-methyl-isothiazol-5-yl)-urea] the figure was 6 nM; with `O=C(Nc1ccc(Cl)cc1)N[C@@H]1CCN(CC2CCNCC2)C[C@H]1c1ccc(Cl)s1` (single isomer, unassigned) [Ex-83, trans-1-(4-chlorophenyl)-3-[3-(5-chlorothiophen-2-yl)-1-(piperidin-4-ylmethyl)piperidin-4-yl]urea dihydrochloride], 0.2 nM. Consider `COCCN1CC[C@@H](NC(=O)Nc2ccc(C#N)cc2)[C@H](c2ccc(OC)cn2)C1` (relative stereo) [Ex-154, trans-1-(4-Cyano-phenyl)-3-[1-(2-methoxy-ethyl)-3-(5-methoxy-pyridin-2-yl)-piperidin-4-yl]-urea], for which the EC50 amounted to 10 nM. As for `Cc1cncc(CN2CC[C@@H](NC(=O)Nc3ccc(Cl)cc3)[C@H](c3ccc(Cl)s3)C2)c1` (relative stereo) [Ex-72, trans-1-(4-chlorophenyl)-3-(3-(5-chlorothiophen-2-yl)-1-((5-methylpyridin-3-yl)methyl)piperidin-4-yl)urea], the EC50 worked out at 2 nM.

As for `CNCCC(=O)N1CC[C@@H](NC(=O)Nc2ccc(Cl)cc2)[C@H](c2ccc(OC)cn2)C1` (relative stereo) [Ex-97, trans-1-(4-chloro-phenyl)-3-[5-methoxy-1'-(3-methylamino-propionyl)-1',2',3',4',5',6'-hexahydro-[2,3']bipyridinyl-4'-yl]-urea], the EC50 is 4 nM. With `COc1ccc([C@@H]2CN(C(=O)C3CCN(C)CC3)CC[C@H]2NC(=O)Nc2ccc(Cl)cc2)nc1` (single isomer, unassigned) [Ex-188, trans-1-(4-chlorophenyl)-3-[3-(5-methoxypyridin-2-yl)-1-(1-methylpiperidine-4-carbonyl)piperidin-4-yl]urea] the figure was 29 nM; with `Cc1cc(NC(=O)N[C@@H]2CCN(c3cncc(C)n3)C[C@H]2c2ccc(Cl)cn2)sn1` (relative stereo) [Ex-34, trans-1-[5-chloro-1'-(6-methyl-pyrazin-2-yl)-1',2',3',4',5',6'-hexahydro-[2,3']bipyridinyl-4'-yl]-3-(3-methyl-isothiazol-5-yl)-urea], 4 nM; with `COc1cnc([C@@H]2CN(CC3CCC(OC)CC3)CC[C@H]2NC(=O)Nc2ccc(Cl)cc2)c(F)c1` (relative stereo) [Ex-223, trans-1-(4-Chloro-phenyl)-3-[3-fluoro-5-methoxy-1'-(4-methoxy-cyclohexylmethyl)-1',2',3',4',5',6'-hexahydro-[2,3']bipyridinyl-4'-yl]-urea], 0.8 nM. `COc1ccc([C@@H]2CNCC[C@H]2NC(=O)Nc2ccc(Cl)cc2)nc1` (single isomer, unassigned) [Ex-168, trans-1-(4-Chlorophenyl)-3-[3-(5-methoxy-pyridin-2-yl)-piperidin-4-yl]-urea]: the EC50 was 0.9 nM. With `CS(=O)(=O)n1ccc(CN2CC[C@@H](NC(=O)Nc3ccccc3)[C@H](c3ccc(Cl)s3)C2)n1` (single isomer, unassigned) [Ex-56, trans-1-(-3-(5-chlorothiophen-2-yl)-1-((1-(methylsulfonyl)-1H-pyrazol-3-yl)methyl)piperidin-4-yl)-3-phenylurea] the figure was 0.9 nM. `COCCC(=O)N1CC[C@@H](NC(=O)Nc2ccc(Cl)cc2)[C@H](c2ccc(OC)cn2)C1` (relative stereo) [Ex-79, trans-1-(4-chlorophenyl)-3-[5-methoxy-1'-(3-methoxy-propionyl)-1',2',3',4',5',6'-hexahydro-[2,3']bipyridinyl-4'-yl]-urea]: the EC50 worked out at 23 nM. With `COc1ccc([C@H]2CN(Cc3cncc(F)c3)CC[C@@H]2NC(=O)Nc2ccc(Cl)cc2)nc1` (relative stereo) [Ex-68, trans-(4-chlorophenyl)-3-[1-[(5-fluoropyridin-3-yl)methyl]-3-(5-methoxypyridin-2-yl)piperidin-4-yl]urea] the figure was 0.09 nM; with `Cc1cc(NC(=O)N[C@@H]2CCN(Cc3cc(C)on3)C[C@H]2c2ccc(Cl)s2)sn1` (single isomer, unassigned) [Ex-48, trans-1-[3-(5-chlorothiophen-2-yl)-1-[(5-methyl-1,2-oxazol-3-yl)methyl]piperidin-4-yl]-3-(3-methyl-1,2-thiazol-5-yl)urea], 72 nM. On to `COc1cnc([C@@H]2CN(CCCN(C)C)CC[C@H]2NC(=O)Nc2ccc(Cl)cc2)c(F)c1` (relative stereo) [Ex-212, trans-1-(4-chloro-phenyl)-3-[1'-(3-dimethylamino-propyl)-3-fluoro-5-methoxy-1',2',3',4',5',6'-hexahydro-[2,3']bipyridinyl-4'-yl]-urea], for which the EC50 came to 0.3 nM. With `COc1ccc([C@@H]2CN(CC(F)F)CC[C@H]2NC(=O)Nc2ccc(Cl)cc2)nc1` (single isomer, unassigned) [Ex-36, trans-1-(4-chlorophenyl)-3-[1-(2,2-difluoroethyl)-3-(5-methoxypyridin-2-yl)piperidin-4-yl]urea] the figure was 85 nM. As to `Cc1ccc(N2CC[C@@H](NC(=O)Nc3cc(C)ns3)[C@H](c3ccc(Cl)cn3)C2)nn1` (relative stereo) [Ex-33, trans-1-[5-chloro-1'-(6-methyl-pyridazin-3-yl)-1',2',3',4',5',6'-hexahydro-[2,3']bipyridinyl-4'-yl]-3-(3-methyl-isothiazol-5-yl)-urea], the EC50 is 11 nM.

On to `COc1ccc([C@H]2CN(c3ccc(F)cc3)C(=O)C[C@H]2NC(=O)Nc2ccc(Cl)cc2)cn1` (relative stereo) [Ex-6, cis-1-(4-chlorophenyl)-3-[1-(4-fluorophenyl)-5-(6-methoxypyridin-3-yl)-2-oxopiperidin-4-yl]urea], for which the EC50 amounted to 6 nM.
